Source: PMC12383145, “Fluorescent Peptides Internalize HeLa Cells and Kill Multidrug-Resistant Clinical Bacterial Isolates” (Antibiotics, 2025)
≈ marks a conversion by molar mass, not a printed value. Where “and” joins values, the source holds several entries; their conditions need not be identical. Identical values can stand only once. Like-named read-outs stand apart in the source and are kept apart here. Positions of bridges follow the written chain, without caps; N, C: chain ends. Non-standard residues stand in square brackets, D forms with d. Residues, ends and D or L forms follow the SMILES beside them. Chains are numbered I, II in the order given. *: point of attachment. 5FAM = O=C1OC2(c3ccc(O)cc3Oc3cc(O)ccc32)c2ccc(C(=O)*)cc21; hPhe = N[C@@H](CCc1ccccc1)C(=O)O; 2Abz = Nc1ccccc1C(=O)O; Ahx = NCCCCCC(=O)O

Tests used:
Assay type in all cases: cell-based
E. coli ATCC 25922 = system: E. coli ATCC 25922
Description: (§1) The minimum inhibitory concentration (MIC) of the peptides was determined by the broth microdilution technique, according to the Clinical and Laboratory Standards Institute (CLSI) guidelines, as previously described. Briefly, bacterial strains were incubated in BHI broth at 37 °C until they reached the exponential growth phase, and inocula were adjusted to 5 × 10^6 CFU/mL using calibration curves. Serial dilutions of the peptides to be evaluated in 96-well plates were made in 90 µL of Mueller Hinton broth at concentrations ranging from 200 to 6.25 µg/mL, and 10 µL of the inoculum adjusted to 5 × 10^6 CFU/mL was added. Finally, the plates were incubated at 37 °C for 24 h, and the absorbance at 620 nm was read. As a negative control, CMH, distilled water, and 10 µL of inoculum were used; for the positive control, vancomycin was used for Gram-positive strains and ciprofloxacin for Gram-negative strains at the MICs dictated by the CLSI; as a technical control, CMH with peptone water was used, and for the growth control, CMH was used with 10 µL of inoculum.
(§2) To determine the minimum bactericidal concentration (MBC), the 96-well plates where the MIC was determined were used as a starting point. From these, an aliquot of the controls and those wells where no apparent bacterial growth was observed were spotted onto trypticase soy agar plates. The plates were incubated at 37 °C for 24 h, and the reading was taken, identifying the lowest concentration of the peptide where there was no bacterial growth as the MBC.

E. faecalis ATCC 29212 = system: E. faecalis ATCC 29212
Description: as §1, §2

[1] = system: K. pneumoniae ATCC 700603
Description: as §1, §2

P. aeruginosa ATCC 27853 = system: P. aeruginosa ATCC 27853
Description: as §1, §2

S. aureus ATCC 25923 = conditions: ATCC 25923, 24 h
Description: as §1, §2

[2] = system: S. aureus clinical isolate 11719
[3] = system: E. coli clinical isolate 1004 (susceptible)
Description: (§3) E. coli isolates 1004 (susceptible), 129797 (resistant), and 301755 (MDR) were selected for evaluation. Isolate 1004 was sensitive to all antibiotics tested. […] These findings identify it as a multidrug-resistant (MDR) strain and an extended-spectrum beta-lactamase (ESBL)-producing bacterium. For S. aureus, isolates 109095, 117719, and 124653 were evaluated. All three were resistant to penicillin, indicating beta-lactamase production mediated by the blaZ gene. Studies have shown that up to 90% of S. aureus isolates worldwide are penicillin-resistant, which implies that this antibiotic is ineffective in infections caused by this pathogen. […] Isolate 124653 was resistant to penicillin, tetracycline, and erythromycin, with the latter belonging to the group of macrolides, antibiotics that inhibit protein synthesis through interaction with the 50S […] subunit. For E. faecalis three isolates were selected: strains 213 (sensitive to all the antibiotics tested), strain 82 (resistant to streptomycin), and strain 179 (resistant to gentamicin). These clinical isolates were selected to assess the antimicrobial activity of the peptide RWQWRWQWR and its analogues conjugated to fluorescent molecules in strains against strains with susceptibility profiles.
(§4) The analysis of synthesized peptides in ATCC reference strains and susceptible, resistant, and multidrug-resistant (MDR) clinical isolates was performed. The clinical isolates were obtained from the National Cancer Institute collection and were previously identified and antibiogrammed using the VITEK system. Additionally, the strains were characterized by MALDI-TOF. The strains were re-primed onto trypticase soy agar and subsequently preserved in Brain–Heart Infusion (BHI) broth containing 20% glycerol. For the MIC and MBC assays, the strains were reactivated and cultured in BHI until they reached their exponential growth phase.
as §1, §2

[4] = system: E. coli clinical isolate 129797 (resistant)
Description: as §3, §4, §1, §2

[5] = system: E. coli clinical isolate 301755 (MDR)
Description: as §3, §4, §1, §2

[6] = system: E. faecalis clinical isolate 179
Description: as §3, §4, §1, §2

[7] = system: E. faecalis clinical isolate 213
Description: as §3, §4, §1, §2

[8] = system: E. faecalis clinical isolate 82
Description: as §3, §4, §1, §2

[9] = system: S. aureus clinical isolate 109095
Description: as §3, §4, §1, §2

[10] = system: S. aureus clinical isolate 124653
Description: as §3, §4, §1, §2

[11] = MTT cytotoxicity assay in HeLa cells; conditions: human
Description: MTT assays were conducted in HeLa cells to evaluate the effect of fluorescent probe incorporation on the in vitro cytotoxic activity of the parent non-conjugated peptides. The cytotoxic effect of peptides 1, Abz-1 RhB-1, 2, and RhB-2 in HeLa cells was peptide concentration-dependent, with the highest anticancer activity observed at 200 µg/mL. Incorporation of 2-Abz and RhB at the N-terminal end reduced cytotoxic activity, while the binding of 2-Abz at the C-terminal end or FAM at the N-terminal end drastically diminished anticancer activity (Table 4).

Hemolysis assay = test: Hemolysis assay
Description: (§5) Whole blood was collected into EDTA tubes and centrifuged at 2500 rpm for 10 min. The plasma and buffy coat were removed, and the erythrocytes were washed three times with 0.9% saline to yield a 4% cell suspension. In 96-well plates, 100 µL of peptide dilutions (6.25–200 µg/mL) were prepared in triplicate, and 100 µL of the erythrocyte suspension was added (final hematocrit 2%). Plates were incubated at 37 °C for 2 h, and then centrifuged again at 2500 rpm for 10 min. A 100 µL aliquot of the supernatant was transferred to a fresh plate, and absorbance was measured at 450 nm. Saline and 1× Triton X-100 served as the negative and positive controls, respectively. Hemolysis (%) was calculated as follows: %hemolysis=treatment absorbance−saline absorbance/1×triton absorbance−saline absorbance

erythrocytes = test: Hemolysis assay; conditions: 2 h
Description: as §5

[12] = system: clinical isolates of E. coli; conditions: stated for all three E. coli clinical isolates
Description: as §3, §4, §1, §2

[13] = clinical isolate 1004 (susceptible, 24 h)
[14] = clinical isolate 129797 (resistant, 24 h)
[15] = clinical isolate 301755 (MDR, 24 h)
[16] = S. aureus clinical isolate 11719
[17] = E. coli clinical isolate 129797
[18] = E. coli clinical isolate 301755
[19] = E. faecalis clinical isolate 179
[20] = E. faecalis clinical isolate 213
[21] = E. faecalis clinical isolate 82
[22] = S. aureus clinical isolate 109095
[23] = S. aureus clinical isolate 124653

## N=C(N)NCCC[C@H](NC(=O)[C@H](Cc1c[nH]c2ccccc12)NC(=O)[C@H](CCC(N)=O)NC(=O)[C@H](Cc1c[nH]c2ccccc12)NC(=O)[C@H](CCCNC(=N)N)NC(=O)[C@H](Cc1c[nH]c2ccccc12)NC(=O)[C@H](CCC(N)=O)NC(=O)[C@H](Cc1c[nH]c2ccccc12)NC(=O)[C@H](CCCNC(=N)N)NC(=O)c1ccc2c(c1)C(=O)OC21c2ccc(O)cc2Oc2cc(O)ccc21)C(N)=O [FAM-1, FAM-RWQWRWQWR] (5FAM-RWQWRWQWR-NH2)
E. coli ATCC 25922; ATCC 25922, 24 h
  Minimal bactericidal concentration (MBC): > 108 µM
  Minimal inhibitory concentration (MIC): 108 µM (≈ 199 µg/mL)
E. faecalis ATCC 29212; ATCC 29212, 24 h
  Minimal bactericidal concentration (MBC): > 108 µM
  Minimal inhibitory concentration (MIC): 54 µM (≈ 99.6 µg/mL)
[1]; ATCC 700603, 24 h
  Minimal bactericidal concentration (MBC): > 108 µM
  Minimal inhibitory concentration (MIC): > 108 µM
P. aeruginosa ATCC 27853; ATCC 27853, 24 h
  Minimal bactericidal concentration (MBC): > 108 µM
  Minimal inhibitory concentration (MIC): > 108 µM
S. aureus ATCC 25923
  Minimal bactericidal concentration (MBC): > 108 µM
  Minimal inhibitory concentration (MIC): 108 µM (≈ 199 µg/mL)
[2]; clinical isolate 11719, 24 h
  Minimal bactericidal concentration (MBC): > 108 µM
  Minimal inhibitory concentration (MIC): > 108 µM
[3]; [13]
  Minimal bactericidal concentration (MBC): > 108 µM
  Minimal inhibitory concentration (MIC): 108 µM (≈ 199 µg/mL)
[4]; [14]
  Minimal bactericidal concentration (MBC): > 108 µM
  Minimal inhibitory concentration (MIC): > 108 µM
[5]; [15]
  Minimal bactericidal concentration (MBC): > 108 µM
  Minimal inhibitory concentration (MIC): 108 µM (≈ 199 µg/mL)
[6]; clinical isolate 179, 24 h
  Minimal bactericidal concentration (MBC): > 108 µM
  Minimal inhibitory concentration (MIC): > 108 µM
[7]; clinical isolate 213, 24 h
  Minimal bactericidal concentration (MBC): > 108 µM
  Minimal inhibitory concentration (MIC): 108 µM (≈ 199 µg/mL)
[8]; clinical isolate 82, 24 h
  Minimal bactericidal concentration (MBC): > 108 µM
  Minimal inhibitory concentration (MIC): 54 µM (≈ 99.6 µg/mL)
[9]; clinical isolate 109095, 24 h
  Minimal bactericidal concentration (MBC): > 108 µM
  Minimal inhibitory concentration (MIC): > 108 µM
[10]; clinical isolate 124653, 24 h
  Minimal bactericidal concentration (MBC): > 108 µM
  Minimal inhibitory concentration (MIC): > 108 µM
[11]
  IC50: > 200 µg/mL and > 108 µM
Hemolysis assay; Percentage of hemolysis
  hemolysis at 2 h: 17%
erythrocytes
  Therapeutic index: 0.25

## N=C(N)NCCC[C@H](NC(=O)[C@H](Cc1c[nH]c2ccccc12)NC(=O)[C@H](CCC(N)=O)NC(=O)[C@H](Cc1c[nH]c2ccccc12)NC(=O)[C@H](CCCNC(=N)N)NC(=O)[C@H](Cc1c[nH]c2ccccc12)NC(=O)[C@H](CCC(N)=O)NC(=O)[C@H](Cc1c[nH]c2ccccc12)NC(=O)[C@@H](N)CCCNC(=N)N)C(=O)Nc1ccccc1C(N)=O [1-Abz, RWQWRWQWR-(2-Abz)] (H-RWQWRWQWR[2Abz]-NH2)
E. coli ATCC 25922; E. coli ATCC 25922
  Minimal bactericidal concentration (MBC): 62 µM (≈ 99.6 µg/mL)
  Minimal inhibitory concentration (MIC): 62 µM (≈ 99.6 µg/mL)
E. faecalis ATCC 29212; E. faecalis ATCC 29212
  Minimal bactericidal concentration (MBC): > 125 µM
  Minimal inhibitory concentration (MIC): 125 µM (≈ 201 µg/mL)
[1]; K. pneumoniae ATCC 700603
  Minimal bactericidal concentration (MBC): 125 µM (≈ 201 µg/mL)
  Minimal inhibitory concentration (MIC): 125 µM (≈ 201 µg/mL)
P. aeruginosa ATCC 27853; P. aeruginosa ATCC 27853
  Minimal bactericidal concentration (MBC): > 125 µM
  Minimal inhibitory concentration (MIC): 125 µM (≈ 201 µg/mL)
[2]; [16]
  Minimal bactericidal concentration (MBC): 125 µM (≈ 201 µg/mL)
  Minimal inhibitory concentration (MIC): 125 µM (≈ 201 µg/mL)
[3]; E. coli clinical isolate 1004
  Minimal bactericidal concentration (MBC): 125 µM (≈ 201 µg/mL)
  Minimal inhibitory concentration (MIC): 62 µM (≈ 99.6 µg/mL)
[4]; [17]
  Minimal bactericidal concentration (MBC): 125 µM (≈ 201 µg/mL)
  Minimal inhibitory concentration (MIC): 62 µM (≈ 99.6 µg/mL)
[5]; [18]
  Minimal bactericidal concentration (MBC): 125 µM (≈ 201 µg/mL)
  Minimal inhibitory concentration (MIC): 62 µM (≈ 99.6 µg/mL)
[6]; [19]
  Minimal bactericidal concentration (MBC): > 125 µM
  Minimal inhibitory concentration (MIC): > 125 µM
[7]; [20]
  Minimal bactericidal concentration (MBC): > 125 µM
  Minimal inhibitory concentration (MIC): > 125 µM
[8]; [21]
  Minimal bactericidal concentration (MBC): > 125 µM
  Minimal inhibitory concentration (MIC): > 125 µM
[9]; [22]
  Minimal bactericidal concentration (MBC): 125 µM (≈ 201 µg/mL)
  Minimal inhibitory concentration (MIC): 125 µM (≈ 201 µg/mL)
[10]; [23]
  Minimal bactericidal concentration (MBC): > 125 µM
  Minimal inhibitory concentration (MIC): 125 µM (≈ 201 µg/mL)
[12]
  MBC: 125 µM (≈ 201 µg/mL)
[11]; HeLa cells, MTT, read-out: Cytotoxic Activity (IC50)
  IC50: > 200 µg/mL and > 125 µM
Hemolysis assay; at 200 µg/mL (highest tested concentration), 2 h, 37 °C, read-out: hemolysis
  hemolysis at 2 h: 1.5%
Hemolysis assay; at the lowest MIC concentration, read-out: Percentage of hemolysis
  hemolysis at 2 h: 0.9%

## CC(C)C[C@H](NC(=O)[C@H](CCCCN)NC(=O)[C@H](CCCCN)NC(=O)[C@H](CCc1ccccc1)NC(=O)[C@H](CCCNC(=N)N)NC(=O)[C@H](Cc1c[nH]c2ccccc12)NC(=O)[C@H](CCC(N)=O)NC(=O)[C@H](Cc1c[nH]c2ccccc12)NC(=O)[C@H](CCCNC(=N)N)NC(=O)[C@@H](N)CCCNC(=N)N)C(=O)NCC(=O)NCCCC[C@H](NC(=O)CNC(=O)[C@H](CC(C)C)NC(=O)[C@H](CCCCN)NC(=O)[C@H](CCCCN)NC(=O)[C@H](CCc1ccccc1)NC(=O)[C@H](CCCNC(=N)N)NC(=O)[C@H](Cc1c[nH]c2ccccc12)NC(=O)[C@H](CCC(N)=O)NC(=O)[C@H](Cc1c[nH]c2ccccc12)NC(=O)[C@H](CCCNC(=N)N)NC(=O)[C@@H](N)CCCNC(=N)N)C(=O)NCCCCCC(N)=O [peptide 2, (RRWQWR-hF-KKLG)2K-Ahx] (I: H-RRWQWR[hPhe]KKLGK[Ahx]-NH2 / II: H-RRWQWR[hPhe]KKLG; amide I:12-II:C; N-terminus assumed)
[11]
  IC50: 109 µg/mL and 32 µM
